For experiment [1], the target named is Beta-3 adrenergic receptor (Homo sapiens, UniProt P13945). In words: DRUGMATRIX: Adrenergic beta3 radioligand binding (ligand: [125I] Cyanopindolol). It is filed as cell membranes, HEK293, Membrane. The note with it: Not Active = under 50% inhibition at 10 µM.
Experiment [2] in a line: DRUGMATRIX: GABAA, Chloride Channel, TBOB radioligand binding (ligand: [3H] TBOB). It is filed as cell membranes, Rattus norvegicus, Wistar, Cerebral cortex, Membrane. As to conditions: Not Active = under 50% inhibition at 10 µM.
A further experiment deals with Melanocortin receptor 5 (Homo sapiens, UniProt P33032). It is filed as cell membranes, HEK293, Membrane.
Experiment [3] addresses cGMP-specific 3',5'-cyclic phosphodiesterase (Homo sapiens, UniProt O76074). In words: DRUGMATRIX: Phosphodiesterase PDE5 enzyme inhibition (substrate: [3H]cGMP + cGMP). As to conditions: platelet; Not Active = under 50% inhibition at 10 µM. It is filed as tissue-based, Platelet.
A short description of experiment [4]: DRUGMATRIX: Potassium Channel [KATP] radioligand binding (ligand: [3H] Glyburide). It is filed as cell membranes, Membrane. The note with it: hit-t15; Not Active = under 50% inhibition at 10 µM.
In experiment [5] the target is Tyrosine-protein kinase Lck (Homo sapiens, UniProt P06239). The experiment in a line: DRUGMATRIX: Protein Tyrosine Kinase, LCK enzyme inhibition (substrate: Poly(Glu:Tyr)). The format is cell-based, Insect cells. As to conditions: insect cells; Not Active = under 50% inhibition at 10 µM.
Chain of Tyrosine-protein kinase Lck (P06239 whole entry): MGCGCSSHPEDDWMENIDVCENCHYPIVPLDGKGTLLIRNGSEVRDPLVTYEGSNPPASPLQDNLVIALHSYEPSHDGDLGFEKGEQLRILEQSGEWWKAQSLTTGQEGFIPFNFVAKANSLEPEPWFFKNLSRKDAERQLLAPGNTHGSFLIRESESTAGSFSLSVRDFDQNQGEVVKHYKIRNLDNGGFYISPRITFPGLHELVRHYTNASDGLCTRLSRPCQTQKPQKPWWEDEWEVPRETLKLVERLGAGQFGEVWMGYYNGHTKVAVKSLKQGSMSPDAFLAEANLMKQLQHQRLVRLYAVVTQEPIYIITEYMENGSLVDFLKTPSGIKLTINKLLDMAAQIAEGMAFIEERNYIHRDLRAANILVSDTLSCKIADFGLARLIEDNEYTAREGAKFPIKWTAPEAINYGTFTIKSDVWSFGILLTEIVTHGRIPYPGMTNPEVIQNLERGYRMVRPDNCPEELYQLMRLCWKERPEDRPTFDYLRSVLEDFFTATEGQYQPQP

Chain of Beta-3 adrenergic receptor (P13945 whole entry): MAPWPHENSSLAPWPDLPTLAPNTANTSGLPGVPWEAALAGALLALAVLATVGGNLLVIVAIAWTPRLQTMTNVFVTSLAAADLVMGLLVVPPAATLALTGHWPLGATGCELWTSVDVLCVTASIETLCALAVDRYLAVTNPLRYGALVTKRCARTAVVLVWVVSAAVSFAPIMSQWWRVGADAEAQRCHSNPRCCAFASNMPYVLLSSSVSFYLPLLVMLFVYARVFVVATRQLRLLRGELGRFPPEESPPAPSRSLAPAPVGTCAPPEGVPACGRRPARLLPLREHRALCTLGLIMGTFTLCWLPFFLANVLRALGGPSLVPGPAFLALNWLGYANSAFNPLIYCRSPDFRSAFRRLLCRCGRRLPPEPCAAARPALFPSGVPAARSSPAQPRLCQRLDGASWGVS
Chain of Melanocortin receptor 5 (P33032 whole entry): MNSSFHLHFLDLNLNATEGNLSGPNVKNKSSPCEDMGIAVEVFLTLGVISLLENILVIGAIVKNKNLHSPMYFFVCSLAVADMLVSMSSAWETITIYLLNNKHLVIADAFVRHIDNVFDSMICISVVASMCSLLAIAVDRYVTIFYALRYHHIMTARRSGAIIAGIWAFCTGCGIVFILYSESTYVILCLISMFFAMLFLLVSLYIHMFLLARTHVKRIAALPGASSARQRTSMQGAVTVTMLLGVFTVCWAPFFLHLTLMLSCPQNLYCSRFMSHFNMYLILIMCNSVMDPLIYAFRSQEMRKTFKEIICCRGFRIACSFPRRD

For the compound `CC(N)Cc1c[nH]c2ccc(OCc3cccs3)cc12` (stereo unspecified) [BW-723C86], the IC50 entry (in experiment [1] (hek293); in experiment [2]; against Melanocortin receptor 5 (hek293); in experiment [3]; in experiment [4]; in experiment [5]) was “Not Active” each time. For the same compound, the Ki entry in experiment [2] and in experiment [4] was “Not Active” throughout.
`CC12CCC(CC1=O)C2(C)C` (stereo unspecified) [CAMPHOR]: the IC50 result (in experiment [1] (hek293); in experiment [2]; on Melanocortin receptor 5 (hek293); in experiment [3]; in experiment [4]; in experiment [5]) was “Not Active” each time. In addition, the Ki entry in experiment [2] and in experiment [4] was “Not Active” each time.
Regarding `C[N+](C)(C)CCOC(N)=O.[Cl-]` [CARBACHOL], the IC50 result (in experiment [1] (hek293); in experiment [2]; at Melanocortin receptor 5 (hek293); in experiment [3]; in experiment [4]; in experiment [5]) was “Not Active” in each case. The Ki result in experiment [2] and in experiment [4] was “Not Active” each time.
`CCCCCCNC(=O)n1cc(F)c(=O)[nH]c1=O` [CARMOFUR]: the IC50 result (in experiment [1] (hek293); in experiment [2]; against Melanocortin receptor 5 (hek293); in experiment [3]; in experiment [4]; in experiment [5]) was “Not Active” in each case. Also, the Ki entry in experiment [2] and in experiment [4] was “Not Active” in each case.
As to `Cl.NC[C@H]1CC[C@H](C(=O)Oc2ccc(CCC(=O)O)cc2)CC1` [CETRAXATE HYDROCHLORIDE], the IC50 result (in experiment [1] (hek293); in experiment [2]; against Melanocortin receptor 5 (hek293); in experiment [3]; in experiment [4]; in experiment [5]) was “Not Active” in each case. The Ki entry in experiment [2] and in experiment [4] was “Not Active” throughout.
Consider `CC1(COc2ccc(CC3SC(=O)NC3=O)cc2)CCCCC1` (stereo unspecified) [CIGLITAZONE], for which the IC50 was 17.9 µM in experiment [1] (read-out: IC50); “Not Active” in experiment [2]; 28.6 µM at Melanocortin receptor 5 (read-out: IC50); “Not Active” in experiment [3]; “Not Active” in experiment [4]; “Not Active” in experiment [5]. The Ki was 13.4 µM in experiment [1] (read-out: Ki), “Not Active” in experiment [2], 26.8 µM on Melanocortin receptor 5 (read-out: Ki) and “Not Active” in experiment [4].
Take `CC(C)Cc1ccc([C@H](C)C(=O)O)cc1` [DEXIBUPROFEN]: the IC50 entry (in experiment [1] (hek293); in experiment [2]; against Melanocortin receptor 5 (hek293); in experiment [3]; in experiment [4]; in experiment [5]) was “Not Active” throughout. Besides, the Ki entry in experiment [2] and in experiment [4] was “Not Active” throughout.
Regarding `O=c1[nH]cnc2c1ncn2[C@H]1CC[C@@H](CO)O1` [DIDANOSINE], the IC50 entry (in experiment [1] (hek293); in experiment [2]; against Melanocortin receptor 5 (hek293); in experiment [3]; in experiment [4]; in experiment [5]) was “Not Active” each time. The Ki result in experiment [2] and in experiment [4] was “Not Active” each time.
As to `ClC1=C(Cl)[C@]2(Cl)[C@@H]3[C@@H]4C[C@@H]([C@H]5O[C@@H]45)[C@@H]3[C@@]1(Cl)C2(Cl)Cl` [DIELDRIN], the IC50 result is “Not Active” in experiment [1] (hek293); 0.335 µM in experiment [2] (read-out: IC50); “Not Active” at Melanocortin receptor 5 (hek293); “Not Active” in experiment [3]; “Not Active” in experiment [4]; “Not Active” in experiment [5]. In addition, the Ki in experiment [2] (read-out: Ki) is 0.3 µM; in experiment [4], “Not Active”.
Consider `CCN1CCN(c2cc3c(cc2F)c(=O)c(C(=O)O)cn3C2CC2)CC1` [ENROFLOXACIN], for which the 50% inhibitory concentration (IC50) result (in experiment [1] (hek293); in experiment [2]; at Melanocortin receptor 5 (hek293); in experiment [3]; in experiment [4]; in experiment [5]) was “Not Active” each time. Moreover, the Ki result in experiment [2] and in experiment [4] was “Not Active” throughout.
For the compound `CNC[C@H](O)c1ccc(O)c(O)c1` [EPINEPHRINE], the IC50 entry (in experiment [1] (hek293); in experiment [2]; against Melanocortin receptor 5 (hek293); in experiment [3]; in experiment [4]; in experiment [5]) was “Not Active” each time. Also, the Ki result in experiment [2] and in experiment [4] was “Not Active” in each case.
Turning to `CC[C@H]1OC(=O)[C@H](C)[C@@H](O[C@H]2C[C@@](C)(OC)[C@@H](O)[C@H](C)O2)[C@H](C)[C@@H](O[C@@H]2O[C@H](C)C[C@H](N(C)C)[C@H]2O)[C@](C)(O)C[C@@H](C)C(=O)[C@H](C)[C@@H](O)[C@]1(C)O` [ERYTHROMYCIN], the IC50 result (in experiment [1] (hek293); in experiment [2]; against Melanocortin receptor 5 (hek293); in experiment [3]; in experiment [4]; in experiment [5]) was “Not Active” throughout. The Ki result in experiment [2] and in experiment [4] was “Not Active” in each case.
On to `CC12CCC(CC1)C(C)(C)O2` [EUCALYPTOL], for which the IC50 entry (in experiment [1] (hek293); in experiment [2]; against Melanocortin receptor 5 (hek293); in experiment [3]; in experiment [4]; in experiment [5]) was “Not Active” throughout. In addition, the Ki entry in experiment [2] and in experiment [4] was “Not Active” each time.
As to `COC(=O)Nc1nc2ccc(Sc3ccccc3)cc2[nH]1` [FENBENDAZOLE], the IC50 result (in experiment [1] (hek293); in experiment [2]; at Melanocortin receptor 5 (hek293); in experiment [3]; in experiment [4]; in experiment [5]) was “Not Active” in each case. The Ki result in experiment [2] and in experiment [4] was “Not Active” in each case.
Turning to `COc1cc(/C=C/C(=O)O)ccc1O` [FERULATE], the IC50 result (in experiment [1] (hek293); in experiment [2]; against Melanocortin receptor 5 (hek293); in experiment [3]; in experiment [4]; in experiment [5]) was “Not Active” in each case. Moreover, the Ki result in experiment [2] and in experiment [4] was “Not Active” in each case.
For `Nc1nc(F)nc2c1ncn2[C@@H]1O[C@H](CO)[C@@H](O)[C@@H]1O` [FLUDARABINE], the IC50 entry (in experiment [1] (hek293); in experiment [2]; against Melanocortin receptor 5 (hek293); in experiment [3]; in experiment [4]; in experiment [5]) was “Not Active” each time. Further, the Ki result in experiment [2] and in experiment [4] was “Not Active” in each case.
`C[C@H](C(=O)O)c1ccc2oc(-c3ccc(F)cc3)nc2c1` [FLUNOXAPROFEN]: the IC50 result (in experiment [1] (hek293); in experiment [2]; against Melanocortin receptor 5 (hek293); in experiment [3]; in experiment [4]; in experiment [5]) was “Not Active” each time. For the same compound, the Ki entry in experiment [2] and in experiment [4] was “Not Active” throughout.
`NS(=O)(=O)c1cc(C(=O)O)c(NCc2ccco2)cc1Cl` [FUROSEMIDE]: the IC50 entry (in experiment [1] (hek293); in experiment [2]; on Melanocortin receptor 5 (hek293); in experiment [3]; in experiment [4]; in experiment [5]) was “Not Active” throughout. In addition, the Ki entry in experiment [2] and in experiment [4] was “Not Active” in each case.

The values are drawn from ChEMBL document CHEMBL1909046, “DrugMatrix in vitro pharmacology data”.
